In patent US20100267561A1, “HERBICIDAL PYRIDAZINONE DERIVATIVES” (priority 2007, published 2010):

Legend:
Test in all cases: Test B pre-/postemergence plant response
Type in all cases: in vivo
[1] = system: Italian ryegrass (Lolium multiflorum); conditions: for Ryegrass, Italian plant response rating: 8 g ai/ha
Outline: (§1)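 Preemergence and postemergence (plants 2-18 cm, 1- to 4-leaf stage) applications used test chemicals in a non-phytotoxic solvent with surfactant. Plants were held in a greenhouse 13 to 15 days, then rated visually against controls on a 0-100 scale (0 no effect, 100 complete control).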

[2] = system: Russian thistle (Salsola iberica); conditions: Preemergence
Outline: as §1

[3] = system: catchweed bedstraw (Galium aparine); conditions: Preemergence
Outline: as §1

[4] = system: cocklebur (Xanthium strumarium); conditions: for Cocklebur plant response rating: 8 g ai/ha
Outline: as §1

[5] = system: common ragweed (Ambrosia elation); conditions: for Ragweed plant response rating: 8 g ai/ha
Outline: as §1

corn (Zea mays) = conditions: for Corn plant response rating: 8 g ai/ha
Outline: as §1

[6] = system: eastern black (E.B.) nightshade (Solanum ptycanthum); conditions: Preemergence
Outline: as §1

[7] = system: green foxtail (Setaria viridis); conditions: for Foxtail, Green plant response rating: 8 g ai/ha
Outline: as §1

kochia (Kochia scoparia) = conditions: for Kochia plant response rating: 8 g ai/ha
Outline: as §1

[8] = system: lambsquarters (Chenopodium album); conditions: for Lambsquarters plant response rating: 8 g ai/ha
Outline: as §1

[9] = system: morningglory (Ipomoea coccinea); conditions: for Morningglory plant response rating: 8 g ai/ha
Outline: as §1

[10] = system: surinam grass (Brachiaria decumbens); conditions: for Surinam Grass plant response rating: 8 g ai/ha
Outline: as §1

wild oat (Avena fatua) = conditions: for Oat, Wild plant response rating: 8 g ai/ha
Outline: as §1

[11] = system: yellow nutsedge (Cyperus esculentus); conditions: for Nutsedge, Yellow plant response rating: 8 g ai/ha
Outline: as §1

[12] = Postemergence, 16 g ai/ha, scale 0 to 100
[13] = Postemergence, 31 g ai/ha, scale 0 to 100, 0 no effect, 100 complete control
[14] = Postemergence, 62 g ai/ha, scale 0 to 100, 0 no effect, 100 complete control
[15] = Preemergence, 16 g ai/ha, scale 0 to 100 (0 no effect, 100 complete control)
[16] = Preemergence, 31 g ai/ha, 0 to 100 scale, 0 no effect, 100 complete control
[17] = Preemergence, 62 g ai/ha, scale 0 to 100
[18] = 16 g ai/ha, scale 0 to 100 (0 no effect, 100 complete control)
[19] = 31 g ai/ha, 0 to 100 scale, 0 no effect, 100 complete control

SMILES: CCc1cc(-c2ccc(Cl)cc2)nn1-c1c(OS(C)(=O)=O)cnn(C)c1=O [Compound 39]
- Ryegrass, Italian plant response rating ([1]; postemergence, 0-100 scale): 30
- Plant response rating, Ryegrass, Italian [1, 12]: 90
- Plant response rating, Ryegrass, Italian [1, 13]: 95
- Plant response rating, Ryegrass, Italian [1, 14]: 100
- Plant response rating, Ryegrass, Italian [1, 15]: 95
- Plant response rating, Ryegrass, Italian [1, 16]: 100
- Plant response rating, Ryegrass, Italian [1, 17]: 100
- Ryegrass, Italian plant response rating ([1]; Preemergence, scale 0 to 100): 90
- Plant response rating, Russian Thistle [2, 18]: 0
- Plant response rating, Russian Thistle [2, 19]: 0
- Plant response rating, Russian Thistle ([2]; 62 g ai/ha, scale 0 to 100): 0
- Russian Thistle plant response rating ([2]; 8 g ai/ha, scale 0 to 100): 0
- Plant response rating, Galium [3, 18]: 0
- Plant response rating, Galium [3, 19]: 0
- Plant response rating, Galium ([3]; 62 g ai/ha, scale 0 to 100): 0
- Galium plant response rating ([3]; 8 g ai/ha, scale 0 to 100): 0
- Cocklebur plant response rating ([4]; postemergence, 0-100 scale): 0
- Plant response rating, Cocklebur [4, 12]: 0
- Plant response rating, Cocklebur [4, 13]: 0
- Plant response rating, Cocklebur [4, 14]: 0
- Plant response rating, Cocklebur [4, 15]: 0
- Plant response rating, Cocklebur [4, 16]: 0
- Plant response rating, Cocklebur [4, 17]: 0
- Cocklebur plant response rating ([4]; Preemergence, scale 0 to 100): 0
- Ragweed plant response rating ([5]; postemergence, 0-100 scale): 0
- Plant response rating, Ragweed [5, 12]: 0
- Plant response rating, Ragweed [5, 13]: 0
- Plant response rating, Ragweed [5, 14]: 0
- Plant response rating, Ragweed [5, 15]: 0
- Plant response rating, Ragweed [5, 16]: 0
- Plant response rating, Ragweed [5, 17]: 0
- Ragweed plant response rating ([5]; Preemergence, scale 0 to 100): 0
- Corn plant response rating (corn (Zea mays); postemergence, 0-100 scale): 0
- Plant response rating, Corn (corn (Zea mays); [12]): 85
- Plant response rating, Corn (corn (Zea mays); [13]): 98
- Plant response rating, Corn (corn (Zea mays); [14]): 100
- Plant response rating, Corn (corn (Zea mays); [15]): 80
- Plant response rating, Corn (corn (Zea mays); [16]): 98
- Plant response rating, Corn (corn (Zea mays); [17]): 100
- Corn plant response rating (corn (Zea mays); Preemergence, scale 0 to 100): 65
- Plant response rating, Nightshade, E. B. [6, 18]: 0
- Plant response rating, Nightshade, E. B. [6, 19]: 0
- Plant response rating, Nightshade, E. B. ([6]; 62 g ai/ha, scale 0 to 100): 0
- Nightshade, E. B. plant response rating ([6]; 8 g ai/ha, scale 0 to 100): 0
- Foxtail, Green plant response rating ([7]; postemergence, 0-100 scale): 30
- Plant response rating, Foxtail, Green [7, 12]: 80
- Plant response rating, Foxtail, Green [7, 13]: 85
- Plant response rating, Foxtail, Green [7, 14]: 100
- Plant response rating, Foxtail, Green [7, 15]: 100
- Plant response rating, Foxtail, Green [7, 16]: 100
- Plant response rating, Foxtail, Green [7, 17]: 100
- Foxtail, Green plant response rating ([7]; Preemergence, scale 0 to 100): 80
- Kochia plant response rating (kochia (Kochia scoparia); postemergence, 0-100 scale): 0
- Plant response rating, Kochia (kochia (Kochia scoparia); [12]): 0
- Plant response rating, Kochia (kochia (Kochia scoparia); [13]): 0
- Plant response rating, Kochia (kochia (Kochia scoparia); [14]): 0
- Plant response rating, Kochia (kochia (Kochia scoparia); [15]): 0
- Plant response rating, Kochia (kochia (Kochia scoparia); [16]): 0
- Plant response rating, Kochia (kochia (Kochia scoparia); [17]): 0
- Kochia plant response rating (kochia (Kochia scoparia); Preemergence, scale 0 to 100): 0
- Lambsquarters plant response rating ([8]; postemergence, 0-100 scale): 0
- Plant response rating, Lambsquarters [8, 12]: 0
- Plant response rating, Lambsquarters [8, 13]: 0
- Plant response rating, Lambsquarters [8, 14]: 0
- Plant response rating, Lambsquarters [8, 15]: 0
- Plant response rating, Lambsquarters [8, 16]: 0
- Plant response rating, Lambsquarters [8, 17]: 0
- Lambsquarters plant response rating ([8]; Preemergence, scale 0 to 100): 0
- Morningglory plant response rating ([9]; postemergence, 0-100 scale): 0
- Plant response rating, Morningglory [9, 12]: 0
- Plant response rating, Morningglory [9, 13]: 0
- Plant response rating, Morningglory [9, 14]: 0
- Plant response rating, Morningglory [9, 15]: 0
- Plant response rating, Morningglory [9, 16]: 0
- Plant response rating, Morningglory [9, 17]: 0
- Morningglory plant response rating ([9]; Preemergence, scale 0 to 100): 0
- Surinam Grass plant response rating ([10]; postemergence, 0-100 scale): 100
- Plant response rating, Surinam Grass [10, 12]: 100
- Plant response rating, Surinam Grass [10, 14]: 100
- Plant response rating, Surinam Grass [10, 15]: 95
- Plant response rating, Surinam Grass [10, 16]: 100
- Plant response rating, Surinam Grass [10, 17]: 100
- Surinam Grass plant response rating ([10]; Preemergence, scale 0 to 100): 90
- Oat, Wild plant response rating (wild oat (Avena fatua); postemergence, 0-100 scale): 95
- Plant response rating, Oat, Wild (wild oat (Avena fatua); [12]): 95
- Plant response rating, Oat, Wild (wild oat (Avena fatua); [13]): 100
- Plant response rating, Oat, Wild (wild oat (Avena fatua); [14]): 100
- Plant response rating, Oat, Wild (wild oat (Avena fatua); [15]): 90
- Plant response rating, Oat, Wild (wild oat (Avena fatua); [16]): 90
- Plant response rating, Oat, Wild (wild oat (Avena fatua); [17]): 95
- Oat, Wild plant response rating (wild oat (Avena fatua); Preemergence, scale 0 to 100): 70
- Nutsedge, Yellow plant response rating ([11]; postemergence, 0-100 scale): 0
- Plant response rating, Nutsedge, Yellow [11, 12]: 0
- Plant response rating, Nutsedge, Yellow [11, 13]: 0
- Plant response rating, Nutsedge, Yellow [11, 14]: 0
- Plant response rating, Nutsedge, Yellow [11, 15]: 0
- Plant response rating, Nutsedge, Yellow [11, 16]: 0
- Plant response rating, Nutsedge, Yellow [11, 17]: 0
- Nutsedge, Yellow plant response rating ([11]; Preemergence, scale 0 to 100): 0
